Test results from patent US8658662B2, “Crystalline CDC7 inhibitor salts” (Nerviano Medical Sciences S.r.l., priority 2009, dated 2014).
In brackets after ≈: the same amount, converted by molar mass. Counter-ions that a name gives are not always drawn. Like-named read-outs stand apart in the source and are kept apart here.

What was measured:
Assay type in all cases: physicochemical
[1] = Solubility of crystalline NMS-E354 salts and free base in 0.9% NaCl solution; conditions: for Aqueous solubility value: stirred 4 hours at RT, excess solid (target 10 mg/ml), filtered, HPLC
Method: The determination of solubility of NMS-E354 salts has been performed by means of the following procedure: known amounts of crystalline NMS-E354 salts or free base stirred for 4 hours at RT in 0.9% NaCl solution, in condition of excess solid considering a target concentration of 10 mg/ml. The obtained preparations were filtered and analysed by means of HPLC.

[2] = Hygroscopicity test by Dynamic Vapour Sorption (DVS); conditions: RH modifications up to 90% at 25° C.
Excerpt: The water uptake of crystalline NMS-E354 salts and free base was investigated by submitting a sample of such substances to a hygroscopicity test by means of a DVS 1000 (SMS). The apparatus is a “controlled atmosphere microbalance” where the weighed sample is exposed to programmed variations of the relative humidity (RH) at a constant and controlled temperature. The measured parameters (weight, time and RH), reported in Excel worksheets, allow obtaining hygroscopicity curves over the tested RH range. Sorption/desorption cycles between 0% and 90% RH can be performed at controlled temperature of 25° C. Progressive variations of RH can be of 10% and 3%; they are operated by the software at the equilibration of the sample weight. This condition can be defined at a constant rate of percent weight variation e.g. 0.005%/min.

[3] = Solubility of NMS-E354 free base in water and early formulation vehicles
Method: The solubility of the NMS-E354 free base is about 4 mg/ml in 10% Polysorbate 80 in 5% dextrose solution, about 7 mg/ml in aqueous 50% Polyethylene Glycol 400 in 5% dextrose solution and about 1÷2 mg/ml when formulated as hydrochloride or phosphate in situ salt. NMS-E354 free base was also suitable for aqueous hypromellose suspensions at about 10 mg/ml. Therefore, the obtained free base was initially formulated as cosolvent based aqueous solution, in situ salt or hypromellose suspension in order to allow administration during early pharmacological and toxicological evaluation for early pharmacological studies.

| SMILES | Aqueous solubility value [1] | hygroscopicity [2] | solubility in 0.9% NaCl solution [1] | Aqueous solubility value ([1]; listed as Free base) | solubility ([3]; 10% Polysorbate 80 in 5% dextrose solution, aqueous with cosolvent or surfactant or cyclodextrin, read-out: solubility) | solubility ([3]; aqueous 50% Polyethylene Glycol 400 in 5% dextrose solution, aqueous with cosolvent or surfactant or cyclodextrin, read-out: solubility) | solubility ([3]; hydrochloride or phosphate in situ salt formulation, formulated as hydrochloride or phosphate in situ salt, read-out: solubility) | solubility ([3]; water, read-out: aqueous solubility) |
| --- | --- | --- | --- | --- | --- | --- | --- | --- |
| NC(=O)c1cc(-c2ccnc(N)n2)[nH]c1-c1ccc(Cl)cc1Cl [Mesylate salt, 5-(2-amino-pyrimidin-4-yl)-2-(2,4-dichloro-phenyl)-1H-pyrrole-3-carboxylic acid amide] | 120 µg/mL | low hygroscopicity | – | – | – | – | – | – |
| NC(=O)c1cc(-c2ccnc(N)n2)[nH]c1-c1ccc(Cl)cc1Cl [Maleate salt, 5-(2-amino-pyrimidin-4-yl)-2-(2,4-dichloro-phenyl)-1H-pyrrole-3-carboxylic acid amide] | 70 µg/mL | low hygroscopicity | 70 µg/mL | – | – | – | – | – |
| NC(=O)c1cc(-c2ccnc(N)n2)[nH]c1-c1ccc(Cl)cc1Cl [Sulfate salt, 5-(2-amino-pyrimidin-4-yl)-2-(2,4-dichloro-phenyl)-1H-pyrrole-3-carboxylic acid amide] | 150 µg/mL | low hygroscopicity | 150 µg/mL | – | – | – | – | – |

Continued, values first:

| Aqueous solubility value [1] | hygroscopicity [2] | solubility in 0.9% NaCl solution [1] | Aqueous solubility value ([1]; listed as Free base) | solubility ([3]; 10% Polysorbate 80 in 5% dextrose solution, aqueous with cosolvent or surfactant or cyclodextrin, read-out: solubility) | solubility ([3]; aqueous 50% Polyethylene Glycol 400 in 5% dextrose solution, aqueous with cosolvent or surfactant or cyclodextrin, read-out: solubility) | solubility ([3]; hydrochloride or phosphate in situ salt formulation, formulated as hydrochloride or phosphate in situ salt, read-out: solubility) | solubility ([3]; water, read-out: aqueous solubility) | SMILES |
| --- | --- | --- | --- | --- | --- | --- | --- | --- |
| 20 µg/mL | low hygroscopicity | – | – | – | – | – | – | NC(=O)c1cc(-c2ccnc(N)n2)[nH]c1-c1ccc(Cl)cc1Cl [Hemifumarate salt, 5-(2-amino-pyrimidin-4-yl)-2-(2,4-dichloro-phenyl)-1H-pyrrole-3-carboxylic acid amide] |
| – | low hygroscopicity | – | <10 µg/mL | ~4000 µg/mL (≈ 11.5 mM) | ~7000 µg/mL (≈ 20.1 mM) | 1000 to 2000 µg/mL | < 10 µg/mL | NC(=O)c1cc(-c2ccnc(N)n2)[nH]c1-c1ccc(Cl)cc1Cl [NMS-E354, 5-(2-amino-pyrimidin-4-yl)-2-(2,4-dichloro-phenyl)-1H-pyrrole-3-carboxylic acid amide] |
